Columns and labels:
[1] = target: recombinant TASK-1 (Homo sapiens (Human), UniProt O14649); assay: Inhibition of recombinant TASK-1 in stably transfected CHO cells (KCl-induced depolarization, voltage-sensitive dye, FLIPR); type: cell-based; settings: depolarization induced by 40 mM potassium chloride, some mean values from multiple determinations
Protocol: (§1) The compounds of the invention were tested here with administration of 40 mM of potassium chloride in the presence of a voltage-sensitive dye using the method described in detail in the following references [Whiteaker et al., Validation of FLIPR membrane potential dye for high-throughput screening of potassium channel modulators, J. Biomol. Screen. 6 (5), 305-312 (2001); Molecular Devices FLIPR Application Note: Measuring membrane potential using the FLIPR® membrane potential assay kit on Fluorometric Imaging Plate Reader (FLIPR®) systems, http://www.moleculardevices.com/reagents-supplies/assay-kits/ion-channels/flipr-membrane-potential-assay-kits]. The activity of the test substances was determined as their ability to inhibit a depolarization induced in the recombinant cells by 40 mM potassium chloride. The concentration which can block half of this depolarization is referred to as IC50.

[2] = target: recombinant TASK-3 (Homo sapiens (Human), UniProt Q9NPC2); assay: Inhibition of recombinant TASK-3 in stably transfected CHO cells (KCl-induced depolarization, voltage-sensitive dye, FLIPR); type: cell-based; settings: depolarization induced by 40 mM potassium chloride, some mean values from multiple determinations
Chain of recombinant TASK-3 (Q9NPC2 whole entry): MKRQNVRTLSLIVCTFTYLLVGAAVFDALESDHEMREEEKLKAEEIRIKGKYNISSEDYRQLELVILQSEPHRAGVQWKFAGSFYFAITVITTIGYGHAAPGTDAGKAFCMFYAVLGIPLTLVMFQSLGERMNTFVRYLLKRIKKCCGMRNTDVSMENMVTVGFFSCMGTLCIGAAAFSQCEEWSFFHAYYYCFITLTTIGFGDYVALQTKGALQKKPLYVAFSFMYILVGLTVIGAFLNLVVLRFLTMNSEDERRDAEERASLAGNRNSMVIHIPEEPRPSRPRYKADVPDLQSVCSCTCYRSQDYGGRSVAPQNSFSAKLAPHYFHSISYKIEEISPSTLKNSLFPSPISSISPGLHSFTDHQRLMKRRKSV
Protocol: as §1

Chain of recombinant TASK-1 (O14649 whole entry): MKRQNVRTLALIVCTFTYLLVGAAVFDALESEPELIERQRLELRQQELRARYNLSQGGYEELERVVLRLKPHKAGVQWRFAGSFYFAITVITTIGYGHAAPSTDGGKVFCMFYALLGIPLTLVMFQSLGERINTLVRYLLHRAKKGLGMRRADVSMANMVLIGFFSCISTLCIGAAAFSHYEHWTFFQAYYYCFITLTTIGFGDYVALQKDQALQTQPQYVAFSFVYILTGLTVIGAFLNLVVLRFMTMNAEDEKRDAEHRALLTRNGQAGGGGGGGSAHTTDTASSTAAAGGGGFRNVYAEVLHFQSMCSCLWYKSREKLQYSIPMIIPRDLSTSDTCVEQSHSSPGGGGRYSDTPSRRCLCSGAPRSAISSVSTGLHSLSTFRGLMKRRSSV

Structure (SMILES)	IC50 [1]	IC50 [2]
COc1cccc(C(=O)N2C3CCC2CN(Cc2c(-c4ccc(Cl)cc4)nc4ccccn24)CC3)n1 (single isomer, unassigned) [Example 90, [3-{[2-(4-Chlorophenyl)imidazo[1,2-a]pyridin-3-yl]methyl}-3,9-diazabicyclo[4.2.1]non-9-yl](6-methoxypyridin-2-yl)methanone]	43 nM	2.8 nM
COc1cccc(C(=O)N2C3CCC2CN(Cc2c(-c4ccc(Cl)cc4)nc4ccccn24)CC3)n1 (single isomer, unassigned) [Example 91, [3-{[2-(4-Chlorophenyl)imidazo[1,2-a]pyridin-3-yl]methyl}-3,9-diazabicyclo[4.2.1]non-9-yl](6-methoxypyridin-2-yl)methanone]	290 nM	5.5 nM
COc1ccc(F)c(C(=O)N2CC3CCC2CN(Cc2c(-c4ccc(Cl)cc4)nc4ccccn24)C3)n1 (single isomer, unassigned) [Example 94, [3-{[2-(4-chlorophenyl)imidazo[1,2-a]pyridin-3-yl]methyl}-3,6-diazabicyclo[3.2.2]non-6-yl](3-fluoro-6-methoxypyridin-2-yl)methanone]	3200 nM	110 nM
COc1cccc(C(=O)N2CC3CCC2CN(Cc2c(-c4ccc(Cl)cc4)nc4ccccn24)C3)n1 (single isomer, unassigned) [Example 95, [3-{[2-(4-chlorophenyl)imidazo[1,2-a]pyridin-3-yl]methyl}-3,6-diazabicyclo[3.2.2]non-6-yl](6-methoxypyridin-2-yl)methanone]	4900 nM	710 nM
O=C(c1ccccc1F)N1C2CCC1CN(Cc1c(-c3ccc(Cl)cc3)nc3ncccn13)CC2 (single isomer, unassigned; (-)) [Example 81, (−)-[3-{[2-(4-chlorophenyl)imidazo[1,2-a]pyrimidin-3-yl]methyl}-3,9-diazabicyclo[4.2.1]non-9-yl](2-fluorophenyl)methanone]	590 nM	9.2 nM
COc1cccc(C(=O)N2CCC3CCC2CN3Cc2c(-c3ccc(Cl)cc3)nc3ncccn23)n1 (centres unmarked) [Example 21]	18000 nM	140 nM
COc1ccc(Cl)c(C(=O)N2CCC3CCC2CN3Cc2c(-c3ccc(Cl)cc3)nc3ncccn23)n1 (centres unmarked) [Example 23]	3000 nM	24 nM
Nc1nonc1C(=O)N1CCC2CCC1CN2Cc1c(-c2ccc(Cl)cc2)nc2ncccn12 (centres unmarked) [Example 24]	3100 nM	24 nM
Nc1nonc1C(=O)N1CCC2CCC1CN2Cc1c(-c2ccc(Cl)cc2)nc2ccccn12 (centres unmarked) [Example 40]	3300 nM	29 nM
CC(C)c1ccc(-c2nc3ncccn3c2CN2CC3CCC2CCN3C(=O)c2ccccc2F)cc1 (centres unmarked) [Example 46]	16000 nM	1000 nM
COc1ccc(F)c(C(=O)N2CCC3CCC(C2)N3Cc2c(-c3ccc(C(C)C)cc3)nc3ncccn23)n1 (centres unmarked) [Example 53]	1300 nM	380 nM
COc1ccc(Cl)c(C(=O)N2CCC3CCC(C2)N3Cc2c(-c3ccc(C(C)C)cc3)nc3ncccn23)n1 (centres unmarked) [Example 54]	780 nM	290 nM
COc1cccc(C(=O)N2CCC3CCC(C2)N3Cc2c(-c3ccc(C(C)C)cc3)nc3ncccn23)n1 (centres unmarked) [Example 55]	4000 nM	1000 nM
CC(C)c1ccc(-c2nc3ncccn3c2CN2C3CCC2CN(C(=O)c2cccc(OC(F)F)n2)CC3)cc1 (centres unmarked) [Example 56]	8500 nM	1000 nM
CC(C)c1ccc(-c2nc3ncccn3c2CN2C3CCC2CN(C(=O)C2CCCC2)CC3)cc1 (centres unmarked) [Example 57]	6200 nM	2000 nM
COc1ccc(F)c(C(=O)N2CCC3CCC(C2)N3Cc2c(-c3ccc(C(C)C)cc3)nc3ncccn23)n1 (centres unmarked) [Example 58]	2900 nM	920 nM
COc1ccc(Cl)c(C(=O)N2CCC3CCC(C2)N3Cc2c(-c3ccc(C(C)C)cc3)nc3ncccn23)n1 (centres unmarked) [Example 59]	1100 nM	680 nM
COc1cccc(C(=O)N2CCC3CCC(C2)N3Cc2c(-c3ccc(C(C)C)cc3)nc3ncccn23)n1 (centres unmarked) [Example 60]	5200 nM	1000 nM
CC(C)c1ccc(-c2nc3ncccn3c2CN2C3CCC2CN(C(=O)c2cccc(OC(F)F)n2)CC3)cc1 (centres unmarked) [Example 61]	9400 nM	1000 nM
CC(C)c1ccc(-c2nc3ncccn3c2CN2C3CCC2CN(C(=O)C2CCCC2)CC3)cc1 (centres unmarked) [Example 62]	8400 nM	1000 nM
CC(C)c1ccc(-c2nc3ncccn3c2CN2C3CCC2CN(C(=O)c2ccccc2F)CC3)cc1 (centres unmarked) [Example 63]	8400 nM	800 nM
CC(C)c1ccc(-c2nc3ncccn3c2CN2C3CCC2CN(C(=O)c2ccccc2F)CC3)cc1 (centres unmarked) [Example 64]	7200 nM	1800 nM

Second part, the molecule after the results:

IC50 [1]	IC50 [2]	Structure (SMILES)
1600 nM	167 nM	COc1cccc(C(=O)N2CCC3CCC2CN3Cc2c(-c3ccc(Cl)cn3)nc3ccccn23)n1 (centres unmarked) [Example 18]
13500 nM	580 nM	COc1ccc(F)c(C(=O)N2CCC3CCC2CN3Cc2c(-c3ccc(Cl)cn3)nc3ccccn23)n1 (centres unmarked) [Example 19]
3350 nM	197 nM	COc1ccc(Cl)c(C(=O)N2CCC3CCC2CN3Cc2c(-c3ccc(Cl)cn3)nc3ccccn23)n1 (centres unmarked) [Example 20]
27000 nM	370 nM	O=C(c1ccccc1F)N1CCC2CCC1CN2Cc1c(-c2ccc(Cl)cc2)nc2ncccn12 (centres unmarked) [Example 22]
1100 nM	11 nM	O=C(c1ccccc1F)N1CCC2CCC1CN2Cc1c(-c2ccc(Cl)cc2)nc2ncccn12 (centres unmarked) [Example 25]
830 nM	6.9 nM	COc1cccc(C(=O)N2CCC3CCC2CN3Cc2c(-c3ccc(Cl)cc3)nc3ccccn23)n1 (centres unmarked) [Example 26]
150 nM	3 nM	COc1ccc(F)c(C(=O)N2CCC3CCC2CN3Cc2c(-c3ccc(Cl)cc3)nc3ccccn23)n1 (centres unmarked) [Example 27]
280 nM	5.6 nM	COc1ccc(Cl)c(C(=O)N2CCC3CCC2CN3Cc2c(-c3ccc(Cl)cc3)nc3ccccn23)n1 (centres unmarked) [Example 28]
660 nM	4.4 nM	Nc1nonc1C(=O)N1CCC2CCC1CN2Cc1c(-c2ccc(Cl)cc2)nc2ccccn12 (centres unmarked) [Example 29]
2300 nM	220 nM	O=C(c1ccccc1F)N1CCC2CCC1CN2Cc1c(-c2ccc(Cl)cn2)nc2ccccn12 (centres unmarked) [Example 30]
910 nM	47 nM	O=C(c1ccccc1F)N1CCC2CCC1CN2Cc1c(-c2ccc(Cl)cn2)nc2ncccn12 (centres unmarked) [Example 31]
130 nM	4.1 nM	COc1cccc(C(=O)N2CCC3CCC2CN3Cc2c(-c3ccc(Cl)cc3)nc3ncccn23)n1 (centres unmarked) [Example 32]
2600 nM	110 nM	COc1ccc(F)c(C(=O)N2CCC3CCC2CN3Cc2c(-c3ccc(Cl)cc3)nc3ncccn23)n1 (centres unmarked) [Example 33]
4100 nM	200 nM	COc1ccc(Cl)c(C(=O)N2CCC3CCC2CN3Cc2c(-c3ccc(Cl)cc3)nc3ncccn23)n1 (centres unmarked) [Example 34]
24000 nM	500 nM	Nc1nonc1C(=O)N1CCC2CCC1CN2Cc1c(-c2ccc(Cl)cc2)nc2ncccn12 (centres unmarked) [Example 35]
30000 nM	1000 nM	O=C(c1ccccc1F)N1CCC2CCC1CN2Cc1c(-c2ccc(Cl)cc2)nc2ccccn12 (centres unmarked) [Example 36]
30000 nM	1000 nM	COc1cccc(C(=O)N2CCC3CCC2CN3Cc2c(-c3ccc(Cl)cc3)nc3ccccn23)n1 (centres unmarked) [Example 37]
250 nM	4 nM	COc1ccc(F)c(C(=O)N2CCC3CCC2CN3Cc2c(-c3ccc(Cl)cc3)nc3ccccn23)n1 (centres unmarked) [Example 38]
370 nM	13 nM	COc1ccc(Cl)c(C(=O)N2CCC3CCC2CN3Cc2c(-c3ccc(Cl)cc3)nc3ccccn23)n1 (centres unmarked) [Example 39]
2200 nM	160 nM	COc1cccc(C(=O)N2CCC3CCC2CN3Cc2c(-c3ccc(C(C)C)cc3)nc3ncccn23)n1 (centres unmarked) [Example 41]
2500 nM	250 nM	COc1ccc(Cl)c(C(=O)N2CCC3CCC2CN3Cc2c(-c3ccc(C(C)C)cc3)nc3ncccn23)n1 (centres unmarked) [Example 43]
2900 nM	170 nM	CC(C)c1ccc(-c2nc3ncccn3c2CN2CC3CCC2CCN3C(=O)c2cccc(OC(F)F)n2)cc1 (centres unmarked) [Example 45]
3100 nM	180 nM	CC(C)c1ccc(-c2nc3ncccn3c2CN2CC3CCC2CCN3C(=O)c2ccccc2F)cc1 (centres unmarked) [Example 47]
12000 nM	430 nM	COc1cccc(C(=O)N2CCC3CCC2CN3Cc2c(-c3ccc(C(C)C)cc3)nc3ncccn23)n1 (centres unmarked) [Example 48]
5500 nM	540 nM	COc1ccc(F)c(C(=O)N2CCC3CCC2CN3Cc2c(-c3ccc(C(C)C)cc3)nc3ncccn23)n1 (centres unmarked) [Example 49]
2500 nM	440 nM	COc1ccc(Cl)c(C(=O)N2CCC3CCC2CN3Cc2c(-c3ccc(C(C)C)cc3)nc3ncccn23)n1 (centres unmarked) [Example 50]
1100 nM	110 nM	CC(C)c1ccc(-c2nc3ncccn3c2CN2CC3CCC2CCN3C(=O)c2cccc(OC(F)F)n2)cc1 (centres unmarked) [Example 51]
3800 nM	140 nM	CC(C)c1ccc(-c2nc3ncccn3c2CN2CC3CCC2CCN3C(=O)C2CCCC2)cc1 (centres unmarked) [Example 52]
1400 nM	220 nM	O=C(c1cccc(OC(F)(F)F)n1)N1CCC2CCC1CN2Cc1c(-c2ccc(Cl)cc2)nc2ncccn12 (centres unmarked) [Example 65]
180 nM	19 nM	O=C(c1cccc(OC(F)(F)F)n1)N1CCC2CCC1CN2Cc1c(-c2ccc(Cl)cc2)nc2ncccn12 (centres unmarked) [Example 66]
